What all share (format): cell-based
The test system of one series is Aspergillus oryzae. As to the kind of experiment: Antimicrobial spectrum, paper disc agar diffusion. The settings on record: 8 mm paper disc, 100 µg/ml solution, 25°C for a day and night, read-out: Diameter of inhibition zone (mm). As for the experimental part: (§1) The antimicrobial spectra of the compounds of the present invention were examined.
(§2) Table 1 gives the antimicrobial spectra of NK372135A, C and D. A paper disc of 8 mm in diameter was immersed in a solution containing 100 µg/ml of NK372135A, C or D and then placed on an agar medium in which a test strain had been grown. Regarding the four strains listed in the upper part of Table 1 and Candida albicans, each culture was conducted at 37°C for a day and night, while other strains were cultured at 25°C for a day and night. Then the diameter of each inhibition zone thus formed was measured. […] Since no existing antifungal agent exerts a satisfactory effect on fungi, the compounds of the present invention are highly expected as effective antifungal agents.
A general note: Agar diffusion results depend on both activity and mobility in agar.

Another series deals with Bacillus subtilis. Kind of series: Antimicrobial spectrum, paper disc agar diffusion. The settings on record: 8 mm paper disc, 100 µg/ml solution, 37°C for a day and night, read-out: Diameter of inhibition zone (mm). As for the experimental part: as §1, §2
For a further series, the system named is Botrytis fabae. As to the kind of experiment: Antimicrobial spectrum, paper disc agar diffusion. The settings on record: 8 mm paper disc, 100 µg/ml solution, 25°C for a day and night, read-out: Diameter of inhibition zone (mm). The protocol: as §1, §2
Series [1] deals with Candida albicans. Kind of series: Antimicrobial spectrum, paper disc agar diffusion. The note with it: 8 mm paper disc, 100 µg/ml solution, 37°C for a day and night, read-out: Diameter of inhibition zone (mm). The protocol: as §1, §2
The test system of another series is Escherichia coli. As to the kind of experiment: Antimicrobial spectrum, paper disc agar diffusion. The note with it: 8 mm paper disc, 100 µg/ml solution, 37°C for a day and night, read-out: Diameter of inhibition zone (mm). As for the experimental part:
as §1, §2

In the next series the test system is Fusarium roseum. As to the kind of experiment: Antimicrobial spectrum, paper disc agar diffusion. The settings on record: Fusarium sambucinum, read-out: Diameter of inhibition zone (mm). As for the experimental part: as §1, §2
A further series has as its system Mucor japonicus. Kind of series: Antimicrobial spectrum, paper disc agar diffusion. The settings on record: 8 mm paper disc, 100 µg/ml solution, 25°C for a day and night, read-out: Diameter of inhibition zone (mm). As for the experimental part:
as §1, §2

Another series relates to Mycobacterium smegmatis. Kind of series: Antimicrobial spectrum, paper disc agar diffusion. The note with it: Mycolicibacterium smegmatis, 8 mm paper disc, 100 µg/ml solution, 37°C for a day and night, read-out: Diameter of inhibition zone (mm). As for the experimental part: as §1, §2
The next series relates to Mycosphaerella melonis. Kind of series: Antimicrobial spectrum, paper disc agar diffusion. The note with it: 8 mm paper disc, 100 µg/ml solution, 25°C for a day and night, read-out: Diameter of inhibition zone (mm). The protocol:
as §1, §2

The next series concerns Saccharomyces cerevisiae. Kind of series: Antimicrobial spectrum, paper disc agar diffusion. The note with it: 8 mm paper disc, 100 µg/ml solution, 25°C for a day and night, read-out: Diameter of inhibition zone (mm). The protocol: as §1, §2
For another series, the system named is Staphylococcus aureus. As to the kind of experiment: Antimicrobial spectrum, paper disc agar diffusion. The note with it: 8 mm paper disc, 100 µg/ml solution, 37°C for a day and night, read-out: Diameter of inhibition zone (mm). As for the experimental part: as §1, §2
In series [2] the test system is Trichophyton mentagrophytes. As to the kind of experiment: Antimicrobial spectrum, paper disc agar diffusion. The note with it: 8 mm paper disc, 100 µg/ml solution, 25°C for a day and night, read-out: Diameter of inhibition zone (mm). The protocol: as §1, §2
The target in another series is T1, 5-lipoxygenase (Cavia porcellus, UniProt A0A286X958).
T1 construct: the peritoneal cells of the animals were collected; endogenous in cells; host or cells: casein-elicited peritoneal cells of Hartley guinea pigs
T1 sequence (A0A286X958 1-674): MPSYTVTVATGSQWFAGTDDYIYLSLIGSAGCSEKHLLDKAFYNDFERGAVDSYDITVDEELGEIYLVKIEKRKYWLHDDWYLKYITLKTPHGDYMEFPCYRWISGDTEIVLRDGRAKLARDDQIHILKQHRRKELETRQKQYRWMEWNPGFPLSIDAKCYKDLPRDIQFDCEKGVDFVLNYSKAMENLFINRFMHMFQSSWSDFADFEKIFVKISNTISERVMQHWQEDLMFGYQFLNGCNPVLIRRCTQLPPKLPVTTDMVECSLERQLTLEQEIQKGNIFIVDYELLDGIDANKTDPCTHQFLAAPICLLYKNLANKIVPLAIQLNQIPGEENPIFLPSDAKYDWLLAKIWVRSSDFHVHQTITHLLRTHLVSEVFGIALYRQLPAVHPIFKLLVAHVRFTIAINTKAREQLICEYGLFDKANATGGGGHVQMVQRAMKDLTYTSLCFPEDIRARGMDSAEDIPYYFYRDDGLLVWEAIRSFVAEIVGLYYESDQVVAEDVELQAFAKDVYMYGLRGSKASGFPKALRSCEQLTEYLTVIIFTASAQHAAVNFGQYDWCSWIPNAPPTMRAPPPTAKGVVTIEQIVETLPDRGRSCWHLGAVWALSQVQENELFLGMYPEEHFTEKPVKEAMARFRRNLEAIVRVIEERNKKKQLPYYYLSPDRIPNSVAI
As to the kind of experiment: 5-lipoxygenase inhibitory activity in ionophore-stimulated peritoneal cells (5-HETE by HPLC). The settings on record: Guinea pig peritoneal cells, ionophore A 23187 + arachidonic acid. The protocol: The 5-lipoxygenase inhibitory activities of the compounds of the present invention were examined.
The 5-lipoxygenase inhibitory activity was evaluated from the inhibitory activity on ionophore stimulation on Guinea pig peritoneal cells in the following manner.
A 2% casein solution was intraperitoneally administered to Hartley Guinea pigs weighing 250 to 350 g. 18 hours after the administration, the peritoneal cells of the animals were collected. The contaminating erythrocytes were hemolyzed and centrifuged. To the cell fraction thus obtained was added a 50 mM phosphate buffer solution (pH 7.0) containing […] of indomethacin and the concentration of the peritoneal cells was adjusted to 1 x 10⁷ cell/-ml. To 1.0 ml of the cell suspension thus obtained, a test compound of various concentrations was added so as to give a final concentration of 100 µM. Then the mixture was incubated at 37°C for five minutes. Next, 1.0 µg of lonophore A 23187 and 10 µg of arachidonic acid were added thereto and the reaction was initiated. After 20 minutes, the reaction was ceased by adding 4 ml of ethanol. The reaction supernatant was analyzed by HPLC in accordance with the method of Amano et al. [Vitamin, 59, 211 - 219 (1985)] so as to detect 5-hydroxyeicosatetraenoic acid (5-HETE) which was a metabolite derived from arachidonic acid.

The next series relates to G361. Kind of series: Cytotoxicity, growth inhibition by methylene blue method. The note with it: Homo sapiens, G-361, 96 h, RPMI 1640, 10% fetal calf serum, two to four days with compound, read-out: Cytotoxicity IC₅₀. The protocol: (§3) The cytotoxicities of NK372135A, B and C and methoxy-xanthocillin monomethyl ether (XTM) which is an analog thereof were examined. 2,000 cells of each of G361, SW1116, PC-3 and Li-7 cell strains were inoculated into a 96-well plate and incubated at 37°C under 5% CO₂ for 24 hours. An RPMI 1640 medium containing 10% of fetal calf serum was employed as a medium. After incubating for 24 hours, a test compound of a given concentration was added thereto and the incubation was further conducted for two to four days. Subsequently, the cells were counted by the methylene blue method so as to evaluate the extent of the growth inhibition.

The next series concerns Li-7. The description is as above. The settings on record: RPMI 1640, 10% fetal calf serum, two to four days with compound; for IC50: 96 h, read-out: Cytotoxicity IC₅₀. As for the experimental part:
as §3

The subject of the next series is PC-3. Described as above. The settings on record: Homo sapiens, 96 h, RPMI 1640, 10% fetal calf serum, two to four days with compound, read-out: Cytotoxicity IC₅₀. As for the experimental part:
as §3

The test system of a further series is SW1116. Described as above. The settings on record: Homo sapiens, SW 1116, 96 h, RPMI 1640, 10% fetal calf serum, two to four days with compound, read-out: Cytotoxicity IC₅₀. As for the experimental part: as §3
Series [3] has as its system Candida albicans. Kind of series: Anti-Candida activity, growth in bouillon medium (absorbance at 595 nm). The settings on record: Candida albicans 2 x 10³ cell/well, 30°C for 16 hours. The protocol: The anti-Candida activity of NK372135B was compared with that of methoxy-xanthocillin X dimethyl ether which is shown in The Journal of Antibiotics Vol 34 (1981) No. 12, P1556 ∼ 1561.
Candida albicans was inoculated into a 96-well plate at a density of 2 x 10³ cell/well with the use of 0.2 cc of a bouillon medium. Then a test compound of various concentrations was added thereto and the microorganism was incubated at 30°C for 16 hours. Then the absorbance of each well at 595 nm was measured and IC₅₀ was calculated from the dose response curve. […] Thus it was found out that the saturation of the double bond in methoxy-xanthocillin X dimethyl ether enhanced the anti-Candida activity.

Converted amounts (≈) assume the structure as drawn.

As a reminder, the zone of inhibition is the size of the clear area around the sample on an inoculated plate. In the case of `[C-]#[N+]C(=Cc1ccc(OC)cc1)C(Cc1ccc(OC)cc1)[N+]#[C-]` (centres unmarked) [NK372135A], the zone of inhibition at 100 µg/mL in the series with Aspergillus oryzae turned out to be 20 mm; in the series with Bacillus subtilis it was 21.5 mm; in the series on Botrytis fabae, 25 mm; in the series with Candida albicans [1], 30 mm; in the series with Escherichia coli it was 20 mm; in the series on Fusarium roseum it was 9 mm. Moreover, the zone of inhibition at 100 µg/mL worked out at 15 mm in the series on Mucor japonicus; 21 mm in the series on Mycobacterium smegmatis; 18 mm in the series with Mycosphaerella melonis; 25 mm with Saccharomyces cerevisiae; 20.5 mm in the series with Staphylococcus aureus; 30 mm in [2]. The “Inhibition ratio (%)” value worked out at 37.1% at 5-lipoxygenase (10⁻⁴ mol/ℓ), 5.0% on 5-lipoxygenase (10⁻⁵ mol/ℓ) and 0% on 5-lipoxygenase (10⁻⁶ mol/ℓ). In addition, the IC50 with G361 turned out to be 2.13 µg/mL (≈ 6.69 µM); in the series on Li-7, 1.45 µg/mL (≈ 4.55 µM); in the series with PC-3, 1.05 µg/mL (≈ 3.3 µM); with SW1116, 1.65 µg/mL (≈ 5.18 µM).

Consider `[C-]#[N+]C(=Cc1ccc(OC)c(OC)c1)C(Cc1ccc(OC)cc1)[N+]#[C-]` (centres unmarked) [NK372135B], for which the “Inhibition ratio (%)” value on 5-lipoxygenase (10⁻⁴ mol/ℓ) is reported as 33.3%; at 5-lipoxygenase (10⁻⁵ mol/ℓ), 5.0%; at 5-lipoxygenase (10⁻⁶ mol/ℓ), 0%. Moreover, the IC50 was determined as 1.5 µg/mL (≈ 4.31 µM) in the series with Candida albicans [3] (read-out: IC₅₀); 2.4 µg/mL (≈ 6.89 µM) in the series with G361; 1.8 µg/mL (≈ 5.17 µM) in the series on Li-7; 0.76 µg/mL (≈ 2.18 µM) with PC-3; 2.55 µg/mL (≈ 7.32 µM) in the series with SW1116.

`[C-]#[N+]C(=Cc1ccc(OC)c(O)c1)C(Cc1ccc(OC)cc1)[N+]#[C-]` (centres unmarked) [NK372135C]: the zone of inhibition at 100 µg/mL in the series on Aspergillus oryzae came out at 21 mm; in the series on Bacillus subtilis, 28 mm; in the series on Botrytis fabae it was 25 mm; in the series with Candida albicans [1] it was 25 mm; in the series with Escherichia coli it was 29 mm; in the series on Fusarium roseum it was 12 mm. Besides, the zone of inhibition at 100 µg/mL with Mucor japonicus is 17 mm; in the series with Mycosphaerella melonis it was 19 mm; in the series on Saccharomyces cerevisiae, 25 mm; in the series with Staphylococcus aureus it was 26 mm; in [2] it was 30 mm. For the same compound, the “Inhibition ratio (%)” value at 5-lipoxygenase (10⁻⁴ mol/ℓ) is given as 100%; on 5-lipoxygenase (10⁻⁵ mol/ℓ) it was 25.5%; on 5-lipoxygenase (10⁻⁶ mol/ℓ) it was 12.9%. The IC50 amounted to 2.52 µg/mL (≈ 7.54 µM) with G361, 1.7 µg/mL (≈ 5.08 µM) with Li-7, 1.23 µg/mL (≈ 3.68 µM) in the series on PC-3 and 5.89 µg/mL (≈ 17.6 µM) in the series on SW1116.

`[C-]#[N+]C(=C\c1ccc(OC)cc1)/C(=C/c1ccc(OC)c(OC)c1)[N+]#[C-]` [methoxy-xanthocillin X dimethyl ether, reference compound] registered an IC₅₀ in the series with Candida albicans [3] of 9.0 µg/mL.

“methoxy-xanthocillin monomethyl ether [XTM, reference compound]”: in the series with Li-7, the “Cytotoxicity IC₅₀” value was found to be 0.57 µg/mL.

The values above are taken from patent EP0394868A1, “New antibiotics NK372135, process for the production thereof and use thereof” (Nippon Kayaku Kabushiki Kaisha, priority 1989, dated 1990).
